Measurements from patent publication US20250382305A1 (PTC THERAPEUTICS, INC., priority 2022, published 2025).

Tests used:
ATXN3 pre-mRNA = assay: RT-qPCR Assay to Quantify Exon 4 Skipping in ATXN3 pre-mRNA in Cells; format: cell-based; conditions: percent exon 4 skipping in ATXN3 pre-mRNA, RT-qPCR of cell lysates; average IC50
In short: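 IC50 derives from a dose-response fit of percent exon 4 skipping, quantified by RT-qPCR on crude lysates. Compounds tested as 7-point 3.16-fold dilutions in duplicate; cells (10,000/well) were exposed for 24 h at 37 °C before lysis.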

[1] = test system: Total ATXN3 (tATXN3) protein; assay: Endogenous Total ATXN3 (tATXN3) Protein Assay (MSD immunoassay of cell lysates); format: cell-based; conditions: average IC50, total ATXN3 protein in cell lysate after 48 h with compound (Table 1)
In short: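 By electrochemiluminescent MSD sandwich immunoassay (mouse monoclonal capture, rabbit monoclonal and SULFO-TAG anti-rabbit detection), endogenous ATXN3 was quantified in lysates of cells treated 48 h at 37° C at 10,000 cells/well. Treatment used a 7-point 3.16-fold duplicate dilution series, with average IC50 grouped into star categories.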

Compound	IC50 (ATXN3 pre-mRNA) [nM]	IC50 [1] [nM]
N[C@H]1CCC[C@@H]1c1sc2c(NCc3ccco3)cc(Cl)nc2c1Cl [Compound 117, 2-((1S,2S)-2-aminocyclopentyl)-3,5-dichloro-N-(furan-2-ylmethyl)thieno[3,2-b]pyridin-7-amine]	≤ 30	≤ 30
N[C@@H]1CCCO[C@H]1c1sc2c(NCc3ccco3)cc(Cl)nc2c1Br [Compound 118, 2-((2R,3R)-3-aminotetrahydro-2H-pyran-2-yl)-3-bromo-5-chloro-N-(furan-2-ylmethyl)thieno[3,2-b]pyridin-7-amine]	300 to 1000	300 to 1000
N[C@@H]1CCCO[C@H]1c1sc2c(NCc3ccco3)cc(Cl)nc2c1Cl [Compound 119, 2-((2R,3R)-3-aminotetrahydro-2H-pyran-2-yl)-3,5-dichloro-N-(furan-2-ylmethyl)thieno[3,2-b]pyridin-7-amine]	> 1000	> 1000
Cc1c([C@H]2CCC[C@@H]2N)sc2c(NCc3ccco3)cc(Cl)nc12 [Compound 120, 2-((1S,2S)-2-aminocyclopentyl)-5-chloro-N-(furan-2-ylmethyl)-3-methylthieno[3,2-b]pyridin-7-amine]	30 to 300	30 to 300
N[C@H]1CCC[C@]1(F)c1sc2c(NCc3ccco3)cc(Cl)nc2c1Cl [Compound 121, 2-((1R,2S)-2-amino-1-fluorocyclopentyl)-3,5-dichloro-N-(furan-2-ylmethyl)thieno[3,2-b]pyridin-7-amine]	> 1000	> 1000
N[C@H]1CCCCCC[C@@H]1c1sc2c(NCc3cccs3)cc(Cl)nc2c1I [Compound 122, 2-((1S,2S)-2-aminocyclooctyl)-5-chloro-3-iodo-N-(thiophen-2-ylmethyl)thieno[3,2-b]pyridin-7-amine]	> 1000	> 1000
N[C@@H]1CCCCCC[C@H]1c1sc2c(NCc3cccs3)cc(Cl)nc2c1I [Compound 123, 2-((1R,2R)-2-aminocyclooctyl)-5-chloro-3-iodo-N-(thiophen-2-ylmethyl)thieno[3,2-b]pyridin-7-amine]	> 1000	> 1000
Cc1c([C@@]2(F)CCC[C@@H]2N)sc2c(NCc3ccco3)nc(Cl)nc12 [Compound 128, 6-((1R,2S)-2-amino-1-fluorocyclopentyl)-2-chloro-N-(furan-2-ylmethyl)-7-methylthieno[3,2-d]pyrimidin-4-amine]	> 1000	> 1000
N[C@H]1CCCC[C@@H]1c1sc2c(NCc3cccs3)cc(Cl)nc2c1-c1ccccc1 [Compound 129]	30 to 300	300 to 1000
N[C@H]1CCCC[C@@H]1c1sc2c(NCc3cccs3)cc(Cl)nc2c1C1CC1 [Compound 130, 2-((1S,2S)-2-aminocyclohexyl)-5-chloro-3-cyclopropyl-N-(thiophen-2-ylmethyl)thieno[3,2-b]pyridin-7-amine]	30 to 300	30 to 300
N[C@H]1CCC[C@@H]1c1sc2c(NCc3cccs3)cc(Cl)nc2c1-c1ccccc1 [Compound 131, 2-((1S,2S)-2-aminocyclopentyl)-5-chloro-3-phenyl-N-(thiophen-2-ylmethyl)thieno[3,2-b]pyridin-7-amine]	> 1000	> 1000
N[C@@H]1CCCO[C@H]1c1sc2c(NCc3ccccc3)cc(Cl)nc2c1I [Compound 132, 2-((2R,3R)-3-aminotetrahydro-2H-pyran-2-yl)-N-benzyl-5-chloro-3-iodothieno[3,2-b]pyridin-7-amine]	> 1000	300 to 1000
Cc1c([C@H]2OCCC[C@@H]2N)sc2c(NCc3ccco3)cc(Cl)nc12 [Compound 133, 2-((2S,3S)-3-aminotetrahydro-2H-pyran-2-yl)-5-chloro-N-(furan-2-ylmethyl)-3-methylthieno[3,2-b]pyridin-7-amine]	≤ 30	30 to 300
Cc1c([C@@H]2OCCC[C@H]2N)sc2c(NCc3ccco3)cc(Cl)nc12 [Compound 134, ((2R,3R)-3-aminotetrahydro-2H-pyran-2-yl)-5-chloro-N-(furan-2-ylmethyl)-3-methylthieno[3,2-b]pyridin-7-amine]	> 1000	> 1000
N[C@@H]1CCC[C@H]1c1sc2c(NCc3cccs3)cc(Cl)nc2c1-c1ccccc1 [Compound 135, 2-((1R,2R)-2-aminocyclopentyl)-5-chloro-3-phenyl-N-(thiophen-2-ylmethyl)thieno[3,2-b]pyridin-7-amine]	> 1000	> 1000
N[C@H]1CCCO[C@@H]1c1sc2c(NCc3ccccc3)cc(Cl)nc2c1I [Compound 136, 2-((2S,3S)-3-aminotetrahydro-2H-pyran-2-yl)-N-benzyl-5-chloro-3-iodothieno[3,2-b]pyridin-7-amine]	≤ 30	≤ 30
N[C@@H]1CCCC[C@H]1c1sc2c(NCc3cccs3)cc(Cl)nc2c1C1CC1 [Compound 137, 2-((1R,2R)-2-aminocyclohexyl)-5-chloro-3-cyclopropyl-N-(thiophen-2-ylmethyl)thieno[3,2-b]pyridin-7-amine]	> 1000	> 1000
N[C@@H]1CCCC[C@H]1c1sc2c(NCc3cccs3)cc(Cl)nc2c1-c1ccccc1 [Compound 138]	300 to 1000	30 to 300
N[C@H]1COCC[C@@H]1c1sc2c(NCc3cccs3)cc(Cl)nc2c1Br [Compound 139, 2-((3R,4S)-3-aminotetrahydro-2H-pyran-4-yl)-3-bromo-5-chloro-N-(thiophen-2-ylmethyl)thieno[3,2-b]pyridin-7-amine]	≤ 30	30 to 300
N[C@@H]1COCC[C@H]1c1sc2c(NCc3cccs3)cc(Cl)nc2c1Br [Compound 140, 2-((3S,4R)-3-aminotetrahydro-2H-pyran-4-yl)-3-bromo-5-chloro-N-(thiophen-2-ylmethyl)thieno[3,2-b]pyridin-7-amine]	300 to 1000	300 to 1000
N[C@H]1CCCCC[C@@H]1c1sc2c(NCc3cccs3)cc(Cl)nc2c1-c1ccccc1 [Compound 141, 2-((1S,2S)-2-aminocycloheptyl)-5-chloro-3-phenyl-N-(thiophen-2-ylmethyl)thieno[3,2-b]pyridin-7-amine]	> 1000	> 1000
N[C@@H]1CCCCC[C@H]1c1sc2c(NCc3cccs3)cc(Cl)nc2c1-c1ccccc1 [Compound 142, 2-((1R,2R)-2-aminocycloheptyl)-5-chloro-3-phenyl-N-(thiophen-2-ylmethyl)thieno[3,2-b]pyridin-7-amine]	> 1000	> 1000
N[C@H]1CCCO[C@@H]1c1sc2c(NCc3ccco3)nc(Cl)nc2c1Br [Compound 143, 6-((2S,3S)-3-aminotetrahydro-2H-pyran-2-yl)-7-bromo-2-chloro-N-(furan-2-ylmethyl)thieno[3,2-d]pyrimidin-4-amine]	≤ 30	≤ 30
Cc1c([C@@H]2CCC[C@H]2N)sc2c(NCc3ccco3)cc(Cl)nc12 [Compound 145, 2-((1R,2R)-2-aminocyclopentyl)-5-chloro-N-(furan-2-ylmethyl)-3-methylthieno[3,2-b]pyridin-7-amine]	30 to 300	> 1000
N[C@@H]1CCC[C@H]1c1sc2c(NCc3cccs3)cc(Cl)nc2c1I [Compound 154, 2-((1R,2R)-2-aminocyclopentyl)-5-chloro-3-iodo-N-(thiophen-2-ylmethyl)thieno[3,2-b]pyridin-7-amine]	> 1000	> 1000
